From patent US20260062422A1 (Halda Therapeutics OpCo, Inc., priority 2022, published 2026)

What was measured:
[1] = test system: T-Rex 293 cell line SC3 cells having increased expression of androgen receptor protein due to exposure to doxycycline; test: Cellular growth inhibition, T-Rex 293 SC3 cells with doxycycline (androgen receptor induced), CellTiter-Glo; type: cell-based; conditions: T-Rex 293 SC3 cells with 10 ng/mL doxycycline (increased androgen receptor expression)
Method in brief: (§1)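 With DMSO (0.5%) vehicle as negative control, compounds treated SC3 cells for 72 h in medium containing charcoal-dextran FBS ± doxycycline. This T-Rex 293 clone expresses transfected wild-type AR on induction. Readout: CellTiter-Glo 2.0; GI50 by nonlinear regression.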

[2] = test system: T-Rex 293 cell line SC3 cells lacking increased expression of androgen receptor protein; test: Cellular growth inhibition, T-Rex 293 SC3 cells without doxycycline, CellTiter-Glo; type: cell-based; conditions: T-Rex 293 SC3 cells not exposed to doxycycline, CellTiter-Glo 2.0
Method in brief: as §1

VCaP cells = test: Cellular growth inhibition assay for VCaP cells, CellTiter-Glo; type: cell-based, human; conditions: 72 hours treatment, CellTiter-Glo 2.0
Method in brief: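 GI50 values come from four-parameter curve fits of luminescence data normalized to a zero baseline. Compound, in medium with 0.5% DMSO, was added one day after plating and left for 72 h before CellTiter-Glo 2.0 addition.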

T47D cells = test: Cellular growth inhibition assay for T47D cells, CellTiter-Glo; type: cell-based, human; conditions: 72 hours treatment, CellTiter-Glo 2.0 cell viability
Method in brief: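 Cells are plated at 3000/well and allowed 24 h before treatment. Test compound in medium containing 0.5% DMSO is then added, with DMSO-only wells as negative control, and plates are incubated 72 h at 37 °C. ATP luminescence (CellTiter-Glo 2.0) is then fitted to four parameters to derive GI50.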

Structure (SMILES)	GI50 ([1]; 72 h) [nM]	GI50 ([2]; 72 h) [nM]	GI50 (VCaP cells; Homo sapiens, VCaP, 72 h) [nM]	GI50 (T47D cells; Homo sapiens, T47D, 72 h) [nM]	GI50 ([1]; 72 hours) [nM]	GI50 ([2]; 72 hours) [nM]	GI50 (VCaP cells) [nM]	GI50 (T47D cells) [nM]
Cc1sc2c(c1C)C(c1ccc(OC3CC4(CCN(c5ncc(C(=O)N[C@H]6C(C)(C)[C@H](Oc7ccc(C#N)c(Cl)c7)C6(C)C)cn5)CC4)C3)cc1F)=N[C@@H](Cc1ncco1)c1nnc(C)n1-2 [Compound I-457, N-[3-(3-chloro-4-cyano-phenoxy)-2,2,4,4-tetramethyl-cyclobutyl]-2-[2-[3-fluoro-4-[(9S)-4,5,13-trimethyl-9-(oxazol-2-ylmethyl)-3-thia-1,8,11,12-tetrazatricyclo[8.3.0.02,6]trideca-2(6),4,7,10,12-pentaen-7-yl]phenoxy]-7-azaspiro [3.5]nonan-7-yl]pyrimidine-5-carboxamide]	< 500	< 500	< 500	< 500				
Cc1sc2c(c1C)C(c1ccc(C(=O)N3CC[C@@]4(CCCN(c5ncc(C(=O)N[C@H]6C(C)(C)[C@H](Oc7ccc(C#N)c(Cl)c7)C6(C)C)cn5)C4)C3)cc1)=N[C@@H](Cc1ncco1)c1nnc(C)n1-2 [Compound I-256]	> 3000	> 3000	> 3000	> 3000				
Cc1sc2c(c1C)C(c1ccc(OC3CC4(C3)CC3(CCN(c5ncc(C(=O)N[C@H]6C(C)(C)[C@H](Oc7ccc(C#N)c(Cl)c7)C6(C)C)cn5)CC3)C4)cc1)=N[C@@H](C)c1nnc(C)n1-2 [Compound I-411]	< 500	> 3000	< 500	500 to 1500				
Cc1sc2c(c1C)C(c1ccc(OC3CC4(C3)CN(c3ncc(C(=O)N[C@H]5C(C)(C)[C@H](Oc6ccc(C#N)c(Cl)c6)C5(C)C)cn3)C4)cc1)=N[C@H](Cc1ncco1)c1nnc(C)n1-2 [Compound I-199]	< 500	< 500	< 500	< 500				
Cc1sc2c(c1C)C(c1ccc(CC[C@H]3C[C@]4(CCCN(c5ncc(C(=O)N[C@H]6C(C)(C)[C@H](Oc7ccc(C#N)c(Cl)c7)C6(C)C)cn5)C4)C3)cc1)=N[C@@H](C)c1nnc(C)n1-2 [Compound I-369]	< 500	> 3000	< 500	> 3000				
COCC[C@@H]1N=C(c2ccc(CC3CC4(CCN(c5cnc(C(=O)N[C@H]6C(C)(C)[C@H](Oc7ccc(C#N)c(Cl)c7)C6(C)C)cn5)CC4)C3)cc2)c2c(sc(C)c2C)-n2c(C)nnc21 [Compound I-586]	< 500	> 3000	< 500	< 500				
Cc1sc2c(c1C)C(c1ccc(C(=O)N3CCN(Cc4ncc(C(=O)N[C@H]5C(C)(C)[C@H](Oc6ccc(C#N)c(Cl)c6)C5(C)C)cn4)CC3)cc1)=N[C@@H](Cc1ncco1)c1nnc(C)n1-2 [Compound I-327]	> 3000	> 3000	> 3000	> 3000				
Cc1sc2c(c1C)C(c1ccc(C#CCC3CCN(c4ncc(C(=O)N[C@H]5C(C)(C)[C@H](Oc6ccc(C#N)c(Cl)c6)C5(C)C)cn4)CC3)cc1)=N[C@@H](Cc1ncco1)c1nnc(C)n1-2 [Compound I-57]	< 500	< 500	< 500	< 500				
Cc1sc2c(c1C)C(c1ccc(OC[C@H]3CC[C@]4(CCCN(c5ncc(C(=O)N[C@H]6C(C)(C)[C@H](Oc7ccc(C#N)c(Cl)c7)C6(C)C)cn5)C4)C3)cc1)=N[C@@H](Cc1ncco1)c1nnc(C)n1-2 [Compound I-204]	< 500	> 3000	500 to 1500	< 500				
COCC[C@@H]1N=C(c2ccc(N3CC(C4CCN(c5ncc(C(=O)N[C@H]6C(C)(C)[C@H](Oc7ccc(C#N)c(Cl)c7)C6(C)C)cn5)CC4)C3)cc2)c2c(sc(C)c2C)-n2c(C)nnc21 [Compound I-610]	< 500	> 3000	< 500	1500 to 3000				
CCNC(=O)C[C@@H]1N=C(c2ccc(N3CC(N(C)C4CCN(c5ncc(C(=O)N[C@H]6C(C)(C)[C@H](Oc7ccc(C#N)c(Cl)c7)C6(C)C)cn5)CC4)C3)cc2)c2c(sc(C)c2C)-n2c(C)nnc21 [Compound I-122]	< 500	500 to 1500	< 500	< 500				
Cc1sc2c(c1C)C(c1ccc(C(C)(C)N3CC4(CCN(c5ncc(C(=O)N[C@H]6C(C)(C)[C@H](Oc7ccc(C#N)c(Cl)c7)C6(C)C)cn5)CC4)C3)cc1)=N[C@@H](Cc1ncco1)c1nnc(C)n1-2 [Compound I-396]				> 3000	> 3000	> 3000	> 3000	
Cc1sc2c(c1C)C(c1ccc(N3CCC[C@H](C(=O)N4CCC[C@@H](c5ncc(C(=O)N[C@H]6C(C)(C)[C@H](Oc7ccc(C#N)c(Cl)c7)C6(C)C)cn5)C4)C3)cc1)=N[C@@H](Cc1ncco1)c1nnc(C)n1-2 [Compound I-337]	< 500	500 to 1500	< 500	< 500				
CC[C@@H]1N=C(c2ccc(C#CC3CC4(C3)CN(c3ncc(C(=O)N[C@H]5C(C)(C)[C@H](Oc6ccc(C#N)c(Cl)c6)C5(C)C)cn3)C4)cc2)c2c(sc(C)c2C)-n2c(C)nnc21 [Compound I-576]	< 500	500 to 1500	500 to 1500	< 500				
Cc1sc2c(c1C)C(c1ccc(CCCOC3CCN(c4ncc(C(=O)N[C@H]5C(C)(C)[C@H](Oc6ccc(C#N)c(Cl)c6)C5(C)C)cn4)CC3)cc1)=N[C@H](Cc1cnccn1)c1nnc(C)n1-2 [Compound I-278]	< 500	< 500	< 500	< 500				
Cc1sc2c(c1C)C(c1ccc(C3CC(N4CCN(c5ccc(C(=O)N[C@H]6C(C)(C)[C@H](Oc7ccc(C#N)c(Cl)c7)C6(C)C)cn5)CC4)C3)cc1)=N[C@@H](C)c1nnc(C)n1-2 (some centres unmarked) [Compound I-572]	< 500	< 500	< 500	< 500				
Cc1sc2c(c1C)C(c1ccc(N3C4CCC3CN(c3ncc(C(=O)N[C@H]5C(C)(C)[C@H](Oc6ccc(C#N)c(Cl)c6)C5(C)C)cn3)C4)cc1)=N[C@@H](Cc1ncco1)c1nnc(C)n1-2 [Compound I-635]			< 500	< 500	< 500	< 500		
Cc1sc2c(c1C)C(c1ccc(CC[C@H]3CCCC(c4ncc(C(=O)N[C@H]5C(C)(C)[C@H](Oc6ccc(C#N)c(Cl)c6)C5(C)C)cn4)C3)cc1)=N[C@@H](Cc1ncco1)c1nnc(C)n1-2 (some centres unmarked) [Compound I-298]	< 500	< 500	< 500	< 500				
Cc1sc2c(c1C)C(c1ccc(-c3ncc(C4CCN(c5ncc(C(=O)N[C@H]6C(C)(C)[C@H](Oc7ccc(C#N)c(Cl)c7)C6(C)C)cn5)CC4)o3)cc1)=N[C@@H](Cc1ncco1)c1nnc(C)n1-2 [Compound I-442]	< 500	> 3000	< 500	< 500				
Cc1sc2c(c1C)C(c1ccc([C@H]3C[C@@H](C[C@@H]4CCCN(c5ncc(C(=O)N[C@H]6C(C)(C)[C@H](Oc7ccc(C#N)c(Cl)c7)C6(C)C)cn5)C4)C3)cc1)=N[C@@H](Cc1ncco1)c1nnc(C)n1-2 [Compound I-401]					> 3000	> 3000	> 3000	> 3000
Cc1sc2c(c1C)C(c1ccc(OC[C@H]3C[C@@]4(CCCN(c5ncc(C(=O)N[C@H]6C(C)(C)[C@H](Oc7ccc(C#N)c(Cl)c7)C6(C)C)cn5)C4)C3)cc1)=N[C@@H](Cc1ncco1)c1nnc(C)n1-2 [Compound I-234]	< 500	500 to 1500	< 500	< 500				
Cc1sc2c(c1C)C(c1ccc(CCCOC3CCN(c4ncc(C(=O)N[C@H]5C(C)(C)[C@H](Oc6ccc(C#N)c(Cl)c6)C5(C)C)cn4)CC3)cc1)=N[C@@H](Cc1cnccn1)c1nnc(C)n1-2 [Compound I-277]	< 500	> 3000	> 3000	> 3000				
Cc1sc2c(c1C)C(c1ccc([C@H]3C[C@@H]([C@@H]4CCCN(c5ncc(C(=O)N[C@H]6C(C)(C)[C@H](Oc7ccc(C#N)c(Cl)c7)C6(C)C)cn5)C4)C3)cc1)=N[C@@H](Cc1ncco1)c1nnc(C)n1-2 [Compound I-419]	> 3000	> 3000	> 3000	> 3000				
Cc1sc2c(c1C)C(c1ccc(CC3CC4(C3)CN(c3ncc(C(=O)N[C@H]5C(C)(C)[C@H](Oc6ccc(C#N)c(Cl)c6)C5(C)C)cn3)C4)cc1)=N[C@H](Cc1ncco1)c1nnc(C)n1-2 [Compound I-152]	< 500	> 3000	> 3000	> 3000				
Cc1sc2c(c1C)C(c1ccc(O[C@H]3C[C@@H](N(C(C)C)C4CCN(c5ncc(C(=O)N[C@H]6C(C)(C)[C@H](Oc7ccc(C#N)c(Cl)c7)C6(C)C)cn5)CC4)C3)cc1)=N[C@@H](Cc1ncco1)c1nnc(C)n1-2 [Compound I-281]	< 500	500 to 1500	< 500	< 500				
Cc1sc2c(c1C)C(c1ccc(C3CC(N4CCN(c5ccc(C(=O)N[C@H]6C(C)(C)[C@H](Oc7ccc(C#N)c(Cl)c7)C6(C)C)nc5)CC4)C3)cc1)=N[C@@H](C)c1nnc(C)n1-2 (some centres unmarked) [Compound I-577]	< 500	500 to 1500	< 500	< 500				
